Results taken from ChEMBL document CHEMBL3046247, “Anti-inflammatory and antioxidant activities of some extracts and pure natural products isolated from Rhus tripartitum (Ucria)” (Med Chem Res, 2010).
≈ marks a conversion by molar mass, not a printed value.

How the values were obtained:
Type in all cases: functional
[1] = test system: Radical scavenging activity; experiment: Antioxidant activity assessed as inhibition of DPPH radical formation at 1 mg/ml measured at 30 min relative to trolox
[2] = Antioxidant activity assessed as inhibition of ABTS radical formation at 0.06 mg/ml measured at 20 min relative to trolox
[3] = Antioxidant activity assessed as inhibition of ABTS radical formation at 0.03 mg/ml measured at 20 min relative to trolox
[4] = Antioxidant activity assessed as inhibition of ABTS radical formation at 0.25 mg/ml measured at 20 min relative to trolox
[5] = Antioxidant activity assessed as inhibition of ABTS radical formation at 0.12 mg/ml measured at 20 min relative to trolox
[6] = Antioxidant activity assessed as inhibition of ABTS radical formation at 1 mg/ml measured at 20 min relative to trolox
[7] = Antioxidant activity assessed as inhibition of ABTS radical formation at 0.5 mg/ml measured at 20 min relative to trolox
[8] = Antioxidant activity assessed as inhibition of ABTS radical formation at 0.03 mg/ml measured at 15 min relative to trolox
[9] = Antioxidant activity assessed as inhibition of ABTS radical formation at 0.12 mg/ml measured at 15 min relative to trolox
[10] = Antioxidant activity assessed as inhibition of ABTS radical formation at 0.06 mg/ml measured at 15 min relative to trolox
[11] = Antioxidant activity assessed as inhibition of ABTS radical formation at 0.25 mg/ml measured at 15 min relative to trolox
[12] = Antioxidant activity assessed as inhibition of ABTS radical formation at 1 mg/ml measured at 15 min relative to trolox
[13] = Antioxidant activity assessed as inhibition of ABTS radical formation at 0.5 mg/ml measured at 15 min relative to trolox
[14] = Antioxidant activity assessed as inhibition of ABTS radical formation at 0.03 mg/ml measured at 10 min relative to trolox
[15] = Antioxidant activity assessed as inhibition of ABTS radical formation at 0.06 mg/ml measured at 10 min relative to trolox
[16] = Antioxidant activity assessed as inhibition of ABTS radical formation at 0.12 mg/ml measured at 10 min relative to trolox
[17] = Antioxidant activity assessed as inhibition of ABTS radical formation at 0.25 mg/ml measured at 10 min relative to trolox
[18] = Antioxidant activity assessed as inhibition of ABTS radical formation at 0.5 mg/ml measured at 10 min relative to trolox
[19] = Antioxidant activity assessed as inhibition of ABTS radical formation at 1 mg/ml measured at 10 min relative to trolox
[20] = Antioxidant activity assessed as inhibition of ABTS radical formation at 0.03 mg/ml measured at 5 min relative to trolox
[21] = Antioxidant activity assessed as inhibition of ABTS radical formation at 0.06 mg/ml measured at 5 min relative to trolox
[22] = Antioxidant activity assessed as inhibition of ABTS radical formation at 0.12 mg/ml measured at 5 min relative to trolox
[23] = Antioxidant activity assessed as inhibition of ABTS radical formation at 0.25 mg/ml measured at 5 min relative to trolox
[24] = Antioxidant activity assessed as inhibition of ABTS radical formation at 0.5 mg/ml measured at 5 min relative to trolox
[25] = Antioxidant activity assessed as inhibition of ABTS radical formation at 1 mg/ml measured at 5 min relative to trolox
[26] = Antioxidant activity assessed as trolox equivalent of ABTS radical scavenging activity at 15 min
[27] = Antioxidant activity assessed as trolox equivalent of ABTS radical scavenging activity at 20 min
[28] = Antioxidant activity assessed as trolox equivalent of ABTS radical scavenging activity at 5 min
[29] = Antioxidant activity assessed as trolox equivalent of ABTS radical scavenging activity at 10 min
[30] = test system: Radical scavenging activity; experiment: Antioxidant activity assessed as inhibition of DPPH radical formation measured at 30 min relative to trolox
[31] = test system: Rattus norvegicus; experiment: Anti-inflammatory activity in fasted Rattus norvegicus Wistar (rat) assessed as inhibition of carrageenan-induced paw edema at 1 mg/kg, ip administered 1 hr prior to carrageenan challenge measured at 5 hr relative to control; conditions: route intraperitoneal
[32] = test system: Rattus norvegicus; experiment: Anti-inflammatory activity in fasted Rattus norvegicus Wistar (rat) assessed as inhibition of carrageenan-induced paw edema at 1 mg/kg, ip administered 1 hr prior to carrageenan challenge measured at 3 hr relative to control; conditions: route intraperitoneal
[33] = test system: Rattus norvegicus; experiment: Anti-inflammatory activity in fasted Rattus norvegicus Wistar (rat) assessed as inhibition of carrageenan-induced paw edema at 1 mg/kg, ip administered 1 hr prior to carrageenan challenge measured at 1 hr relative to control; conditions: route intraperitoneal
[34] = test system: Rattus norvegicus; experiment: Anti-inflammatory activity in fasted Rattus norvegicus Wistar (rat) assessed as inhibition of carrageenan-induced paw edema at 0.1 mg/kg, ip administered 1 hr prior to carrageenan challenge measured at 5 hr relative to control; conditions: route intraperitoneal
[35] = test system: Rattus norvegicus; experiment: Anti-inflammatory activity in fasted Rattus norvegicus Wistar (rat) assessed as inhibition of carrageenan-induced paw edema at 0.5 mg/kg, ip administered 1 hr prior to carrageenan challenge measured at 5 hr relative to control; conditions: route intraperitoneal
[36] = test system: Rattus norvegicus; experiment: Anti-inflammatory activity in fasted Rattus norvegicus Wistar (rat) assessed as inhibition of carrageenan-induced paw edema at 0.1 mg/kg, ip administered 1 hr prior to carrageenan challenge measured at 3 hr relative to control; conditions: route intraperitoneal
[37] = test system: Rattus norvegicus; experiment: Anti-inflammatory activity in fasted Rattus norvegicus Wistar (rat) assessed as inhibition of carrageenan-induced paw edema at 0.5 mg/kg, ip administered 1 hr prior to carrageenan challenge measured at 3 hr relative to control; conditions: route intraperitoneal
[38] = test system: Rattus norvegicus; experiment: Anti-inflammatory activity in fasted Rattus norvegicus Wistar (rat) assessed as inhibition of carrageenan-induced paw edema at 0.1 mg/kg, ip administered 1 hr prior to carrageenan challenge measured at 1 hr relative to control; conditions: route intraperitoneal
[39] = test system: Rattus norvegicus; experiment: Anti-inflammatory activity in fasted Rattus norvegicus Wistar (rat) assessed as inhibition of carrageenan-induced paw edema at 0.5 mg/kg, ip administered 1 hr prior to carrageenan challenge measured at 1 hr relative to control; conditions: route intraperitoneal
[40] = test system: Radical scavenging activity; experiment: Antioxidant activity assessed as inhibition of DPPH radical formation at 0.2 to 1 mg/ml measured at 30 min relative to trolox

Row | SMILES | Imax [2] | Imax [3] | Imax [4] | Imax [5] | Imax [6] | Imax [7] | Imax [8] | Imax [9] | Imax [10] | Imax [11] | Imax [12] | Imax [13] | Imax [14] | Imax [15] | Imax [16] | Imax [17] | Imax [18] | Imax [19] | Imax [20] | Imax [21] | further results
1 | COc1cc([C@@H]2c3c(cc(OC)c(O)c3OC)C[C@H](CO)[C@H]2CO[C@@H]2O[C@H](CO)[C@@H](O)[C@H](O)[C@H]2O)cc(OC)c1O | 29.9% | 23.3% | 47.8% | 35.7% | 65.5% | 66.6% | 18.9% | 30.9% | 24.6% | 41.6% | 60.1% | 60.9% | 15.3% | 20.8% | 27.2% | 37.8% | 55.5% | 55.3% | 13.2% | 18% | Imax [1]: 64.4%; Imax [22]: 23.8%; Imax [23]: 31.9%; Imax [24]: 48.5%; Imax [25]: 49.4%; Activity [26]: 1.45 mMequiv/mg; Activity [27]: 1.58 mMequiv/mg; Activity [28]: 1.19 mMequiv/mg; Activity [29]: 1.33 mMequiv/mg; IC50 [30]: 251.1 µg/mL (≈ 431 µM)
2 | C[C@@H]1C[C@H]2[C@@H]3CCC4=CC(=O)C=C[C@]4(C)[C@@]3(F)[C@@H](O)C[C@]2(C)[C@@]1(O)C(=O)CO [DEXAMETHASONE] |  |  |  |  |  |  |  |  |  |  |  |  |  |  |  |  |  |  |  |  | inhibition in vivo at 1 mg/kg [31]: 40%; inhibition in vivo at 1 mg/kg [32]: 30%; inhibition in vivo at 1 mg/kg [33]: 23%
3 | O=C1C[C@H](c2ccc(O)cc2)Oc2cc(Oc3c(O)cc4c(c3O)C(=O)C[C@H](c3ccc(O)cc3)O4)cc(O)c21 [MASAZINOFLAVANONE] | 38.4% | 18.3% | 52.3% | 45.7% | 77.7% | 64.4% | 16.3% | 43.2% | 36.2% | 49.8% | 75.5% | 62.5% | 15.1% | 30.4% | 35.9% | 47.7% | 60.6% | 73% | 13.3% | 26.7% | Imax [22]: 32.8%; Imax [23]: 40.9%; Imax [24]: 59.5%; Imax [25]: 72%; inhibition in vivo at 0.1 mg/kg [34]: 10%; inhibition in vivo at 0.5 mg/kg [35]: 14%; inhibition in vivo at 1 mg/kg [31]: 27%; inhibition in vivo at 0.1 mg/kg [36]: 8%; inhibition in vivo at 0.5 mg/kg [37]: 25%; inhibition in vivo at 1 mg/kg [32]: 31%; inhibition in vivo at 0.1 mg/kg [38]: 7%; inhibition in vivo at 0.5 mg/kg [39]: 24%; inhibition in vivo at 1 mg/kg [33]: 31%; Activity [26]: 1.18 mMequiv/mg; Activity [27]: 1.2 mMequiv/mg; Activity [28]: 1.12 mMequiv/mg; Activity [29]: 1.15 mMequiv/mg
4 | O=c1c(O)c(-c2cc(O)c(O)c(O)c2)oc2cc(O)cc(O)c12 [MYRICETIN] | 32.8% | 16.6% | 88.6% | 53.2% | 99.8% | 98.6% | 16% | 51.1% | 31.6% | 86.1% | 99.8% | 98.6% | 14.5% | 29.8% | 48.3% | 83.2% | 98.7% | 99.8% | 13.3% | 27.8% | Imax [40]: 75.1%; Imax [22]: 45.4%; Imax [23]: 78.8%; Imax [24]: 98.5%; Imax [25]: 99.7%; Activity [26]: 2.38 mMequiv/mg; Activity [27]: 2.4 mMequiv/mg; Activity [28]: 2.4 mMequiv/mg; Activity [29]: 2.4 mMequiv/mg; IC50 [30]: 22 µg/mL (≈ 69.1 µM)
